Measurements as given in the supplement of paper PMC10307832.

Assays:
Test in all cases: relative viability (nuclei count vs DMSO), 5 days (fraction); higher = more cells survive
Lapatinib + Tozasertib = compound: CS(=O)(=O)CCNCc1ccc(-c2ccc3ncnc(Nc4ccc(OCc5cccc(F)c5)c(Cl)c4)c3c2)o1 [Lapatinib] + Cc1cc(Nc2cc(N3CCN(C)CC3)nc(Sc3ccc(NC(=O)C4CC4)cc3)n2)n[nH]1 [Tozasertib] (partner 0.1 µM)
How it was run: (§1)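 Lung cancer cell lines in 1536-well plates got either a single drug or a fixed anchor-drug dose together with five library-drug doses (not always all listed) in √10 steps, by pin tool, on the day after seeding. Nuclei were counted after 5 days, and relative viability is the treated-to-vehicle ratio of nuclei counts. Values are medians of duplicate plates.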

Lapatinib + Foretinib = compound: CS(=O)(=O)CCNCc1ccc(-c2ccc3ncnc(Nc4ccc(OCc5cccc(F)c5)c(Cl)c4)c3c2)o1 [Lapatinib] + COc1cc2c(Oc3ccc(NC(=O)C4(C(=O)Nc5ccc(F)cc5)CC4)cc3F)ccnc2cc1OCCCN1CCOCC1 [Foretinib] (partner 0.25 µM)
How it was run: as §1

Wnt-C59 + Navitoclax = compound: CC1=NC=CC(=C1)C2=CC=C(C=C2)CC(=O)NC3=CC=C(C=C3)C4=CN=CC=C4 [Wnt-C59] + CC1(C)CCC(c2ccc(Cl)cc2)=C(CN2CCN(c3ccc(C(=O)NS(=O)(=O)c4ccc(N[C@H](CCN5CCOCC5)CSc5ccccc5)c(S(=O)(=O)C(F)(F)F)c4)cc3)CC2)C1 [Navitoclax] (partner 0.5 µM)
How it was run: as §1

Lapatinib + Decitabine = compound: CS(=O)(=O)CCNCc1ccc(-c2ccc3ncnc(Nc4ccc(OCc5cccc(F)c5)c(Cl)c4)c3c2)o1 [Lapatinib] + Nc1ncn([C@H]2C[C@H](O)[C@@H](CO)O2)c(=O)n1 [Decitabine] (partner 2 µM)
How it was run: as §1

With UMC-11 the relative viability (Lapatinib + Tozasertib; first compound 0.06325 µM) was 0.211, the relative viability (Lapatinib + Tozasertib; first compound 0.2 µM) was 0.209 and the relative viability (Lapatinib + Tozasertib; first compound 0.6325 µM) was 0.184. The relative viability (Lapatinib + Tozasertib; first compound 2 µM) was 0.211, the relative viability (Lapatinib + Foretinib; first compound 0.02 µM) was 0.951 and the relative viability (Lapatinib + Foretinib; first compound 0.06325 µM) was 1.01. The relative viability (Lapatinib + Foretinib; first compound 0.2 µM) was 0.961, the relative viability (Lapatinib + Foretinib; first compound 0.6325 µM) was 0.978 and the relative viability (Lapatinib + Foretinib; first compound 2 µM) was 0.933. For the same cell line, the relative viability (Wnt-C59 + Navitoclax; first compound 0.001 µM) was 0.312, the relative viability (Wnt-C59 + Navitoclax; first compound 0.01 µM) was 0.315 and the relative viability (Wnt-C59 + Navitoclax; first compound 0.03162 µM) was 0.265. For the same cell line, the relative viability (Wnt-C59 + Navitoclax; first compound 0.1 µM) was 0.339, the relative viability (Lapatinib + Decitabine; first compound 0.02 µM) was 0.493 and the relative viability (Lapatinib + Decitabine; first compound 0.06325 µM) was 0.541. For the same cell line, the relative viability (Lapatinib + Decitabine; first compound 0.2 µM) was 0.627, the relative viability (Lapatinib + Decitabine; first compound 0.6325 µM) was 0.518 and the relative viability (Lapatinib + Decitabine; first compound 2 µM) was 0.604.
